Experimental data: US6071884A, “Pharmaceutical compositions and therapeutic methods” (Kirin Beer Kabushiki Kaisha, priority 1992, dated 2000)

Legend:
[1] = test system: marrow cells (mononuclear cell fraction); assay: Proliferation-stimulating effect on marrow cell of mouse (3H-TdR uptake); format: cell-based, mouse (BALB/c); details: percentage of control, 72 h; for activity at 0.1 µg/mL: 10^-1 μg/ml; for activity at 0.01 µg/mL: 10^-2 μg/ml; for activity at 0.001 µg/mL: 10^-3 μg/ml; for activity at 1 µg/mL: 10^0 μg/ml
Method: Pharmacological Test 1: Proliferation-Stimulating Effect on Marrow Cell of Mouse
Marrow cells were prepared from the thigh bone of a 7 week old female BALB/c mouse purchased from Japan SLC Co., Ltd., and a mononuclear cell fraction (MNF) obtained by fractionation using a lympholyte-M (Cedar Lane, Ontario, Canada) was used in the following experiment.
(§1) The concentration of the MNF was adjusted to 1.5×10^6 cells/ml by using 10% FCS RPMI 1640 (Nissui Pharmaceutical Co., Ltd., Tokyo, Japan) as a culture medium. 10 μl/well of a sample with a predetermined concentration and 100 μl/well of the above-prepared MNF were placed on a round-bottomed 96 well plate, and incubated under the conditions of 37° C. and 5% CO2 for 72 hours. Thereafter, 0.5 μCi/well of ^3 H-thymidine (^3 H-TDR) was added. After 8 hour incubation, the cells were harvested, and the amount of the 3H-TdR taken in the nuclei was measured by a liquid scintillation counter.

[2] = test system: mononuclear cell fraction of human umbilical cord blood; assay: Proliferation-stimulating effect on mononuclear cell fraction of human umbilical cord blood (3H-TdR uptake); format: cell-based; details: 96 h, percentage of control, 4 days; for activity at 0.1 µg/mL: 10^-1 μg/ml; for activity at 0.01 µg/mL: 10^-2 μg/ml; for activity at 0.001 µg/mL: 10^-3 μg/ml
Excerpt: Pharmacological Test 3: Proliferation-Stimulating Effect on Mononuclear Cell Fraction of Human Umbilical Cord Blood
It is extremely difficult to obtain human marrow cells. In addition, human umbilical cord blood contains stem cells (Nakahata, T. & Ogwa, M., J. Clin. Inveet. 70, 1324-1328 (1982)), so that it can be a good source of hematopoietic stem/progenitor cell supply (H. E. Broxneyer et al, Proc. Natl. Acad. Sci. USA, 86, 3828-3832 (1989)). For these reasons, the effect on human was examined by using, instead of human marrow cells, human umbilical cord blood.
To human umbilical cord blood was added an equal amount of RPMI 1640. This was placed on a Lymphoprep and centrifugal. The mononuclear cell fraction (MNF) thus obtained was used in the following experiment.
as §1, with “1×10^6” for “1.5×10^6”, “an” for “10% FCS”, “added with 10% auto-blood plasma” for “(Nissui Pharmaceutical Co., Ltd., Tokyo, Japan)”, “plate” for “plate,”, “4 days.” for “72 hours.”, “H-TdR” for “H-thymidine (^3 H-TDR)”

[3] = Life-span-increasing effect on irradiation of a lethal dose of radiation; format: in vivo, mouse (BDF1); details: 10 mice/group, 9 Gy X-ray, 0.1 mg/kg i.v. days 0, 4, 8
Method: Pharmacological Test 4: Life-Span-Increasing Effect on Irradiation of a Lethal Dose of Radiation
An experiment was carried out by using 6 week old female BDF1 mice purchased from Japan SLC Co., Ltd., with 10 mice made one group.
The entire bodies of the entire body of the mice were irradiated with 9 Gy of X-rays by using a Hitachi X-ray irradiator (MBR-1520R), and the day on which the X-ray was irradiated was referred to as "day 0".

[4] = test system: blood platelets; assay: Thrombocytopenia-inhibiting effect in X-ray-irradiated mice; format: in vivo, mouse (BDF1); details: 10 days after 5 Gy X-ray; 0.1 mg/kg i.v. within 2 h; mean ± SD; vehicle per series 10.3, 6.8, 6.7; non-treatment 68.2, 96.9, 73.0
Method: Pharmacological Test 5: Thromboclytopenia-Inhibiting Effect
The thrombocytopenia-inhibiting effect of each sample upon an X-ray-irradiated mouser which is one of models with a decreased number of blood platelets was examined.
An experiment was carried out by using 6 week old female BDF1 mice purchased from Japan SLC Co., Ltd., with 6 mice made one group.
5 Gy of X ray was irradiated to the entire body of the mice by a Hitachi X-ray irradiator CMBR-1520R). Within 2 hours after the irradiation, each sample was administered to the caudal vein of the mice at an amount of 0.1 mg/kg.
(§2) After 10 days, blood was collected from the fundus vein of the mice, and the number of blood platelets was measured by a sequential multi-channel hemocytometer E-2500/cs (Toa Iyo Denshi Kabushiki Kaisha). The number of blood platelets of the non-treated group, that of the medium-administered group, and that of the sample-administered group are shown in Table 5.

[5] = test system: blood platelets; assay: Blood-platelet-increasing effect upon normal mouse; format: in vivo, mouse (BDF1); details: normal mice; 6 days after 0.1 mg/kg i.v.; mean ± SD; vehicle per series 58.2, 63.0, 71.1
Method: Pharmacological Test 6: Blood-Platelet-Increasing Effect upon Mouse
An experiment was carried out by using 6 week old female BDF1 mice purchased from Japan SLC Co., Ltd., with 5 mice made one group.
as §2, with “Each sample was administered to the caudal vein of the mice at a dose of 0.1 mg/kg. After” for “After”, “6” for “10”, “vehicle-administered” for “non-treated group, that of the medium-administered”, “6.” for “5.”

[6] = day 10, controls per series 10, 10, 10, 10, 10, 8
[7] = day 15, controls per series 8, 9, 5, 5, 7, 1
[8] = day 20, controls per series 4, 5, 1, 2, 3, 0
[9] = day 25, controls per series 3, 3, 0, 0, 2, 0
[10] = day 30, controls per series 1, 1, 0, 0, 0, 0

Structure (SMILES): CCCCCCCCCCCCCCCCCCCCCC[C@@H](O)C(=O)N[C@@H](CO[C@H]1O[C@H](CO)[C@H](O)[C@H](O)[C@H]1O)[C@H](O)CCCCCCCCCCCCCCC [Compound 14, (2S,3R)-1-(α-D-galactopyranosyloxy)-2-[(R)-2-hydroxytetracosanoylamino]-3-octadecanol]
- activity at 0.1 µg/mL [1]: 511%
- activity at 0.01 µg/mL [1]: 132%
- activity at 0.001 µg/mL [1]: 134%
- activity at 0.1 µg/mL [2]: 233%
- activity at 0.01 µg/mL [2]: 141%
- activity at 0.001 µg/mL [2]: 96%
- Number of Surviving Mice [3, 6]: 10 mice
- Number of Surviving Mice [3, 7]: 10 mice
- Number of Surviving Mice [3, 8]: 10 mice
- Number of Surviving Mice [3, 9]: 9 mice
- Number of Surviving Mice [3, 10]: 9 mice
- Number of Surviving Mice ([3]; day 35, all controls 0): 9 mice
- Number of Surviving Mice ([3]; day 40, all controls 0): 9 mice
- Number of Blood Platelets [4]: 22.3 ± 6.6 × 10^4 /μl
- Number of Blood Platelets [5]: 101.6 ± 8.3 × 10^4 /μl

Structure (SMILES): CCCCCCCCCCCCCCCCCCCCCCCCCCCC(=O)N[C@@H](CO[C@H]1O[C@H](CO)[C@H](O)[C@H](O)[C@H]1O)[C@H](O)[C@H](O)CCCCCCCCCCCCC [Compound 34, (2S,3S,4R)-1-(α-D-galactopyranosyloxy)-2-octacosanoylamino-3,4-heptadecanediol]
- activity at 0.1 µg/mL [1]: 272%
- activity at 0.01 µg/mL [1]: 183%
- activity at 0.001 µg/mL [1]: 150%
- activity at 0.1 µg/mL [2]: 467%
- activity at 0.01 µg/mL [2]: 258%
- activity at 0.001 µg/mL [2]: 291%
- Number of Surviving Mice [3, 6]: 10 mice
- Number of Surviving Mice [3, 7]: 10 mice
- Number of Surviving Mice [3, 8]: 10 mice
- Number of Surviving Mice [3, 9]: 9 mice
- Number of Surviving Mice [3, 10]: 9 mice
- Number of Surviving Mice ([3]; day 35, all controls 0): 9 mice
- Number of Surviving Mice ([3]; day 40, all controls 0): 9 mice
- Number of Blood Platelets [4]: 24.4 ± 5.6 × 10^4 /μl
- Number of Blood Platelets [5]: 110.1 ± 9.0 × 10^4 /μl

Structure (SMILES): CCCCCCCCCCCCCCCCCCCCCCCCCC(=O)N[C@@H](CO[C@H]1O[C@H](CO)[C@H](O)[C@H](O)[C@H]1O)[C@H](O)[C@H](O)CCCCCCCCCCCCC [Compound 20, (2S,3S,4R)-1-(α-D-galactopyranosyloxy)-2-hexacosanoylamino-3,4-heptadecanediol]
- activity at 1 µg/mL [1]: 982%
- activity at 0.1 µg/mL [1]: 466%
- activity at 0.01 µg/mL [1]: 201%
- activity at 0.001 µg/mL [1]: 67%
- activity at 0.1 µg/mL [2]: 692%
- activity at 0.01 µg/mL [2]: 474%
- activity at 0.001 µg/mL [2]: 507%
- Number of Surviving Mice [3, 6]: 10 mice
- Number of Surviving Mice [3, 7]: 8 mice
- Number of Surviving Mice [3, 8]: 7 mice
- Number of Surviving Mice [3, 9]: 7 mice
- Number of Surviving Mice [3, 10]: 6 mice
- Number of Surviving Mice ([3]; day 35, all controls 0): 6 mice
- Number of Surviving Mice ([3]; day 40, all controls 0): 6 mice
- Number of Blood Platelets [4]: 19.8 ± 7.3 × 10^4 /μl
- Number of Blood Platelets [5]: 110.9 ± 10.6 × 10^4 /μl

Structure (SMILES): CCCCCCCCCCCCCCCCCCCCCC[C@@H](O)C(=O)N[C@@H](CO[C@H]1O[C@H](CO)[C@H](O)[C@H](O)[C@H]1O)[C@H](O)[C@H](O)CCCCCCCCCCCCC [Compound 22, (2S,3S,4R)-1-(α-D-galactopyranosyloxy)-2-[(R)-2-hydroxytetracosanoylamino]-3,4-heptadecanediol]
- activity at 1 µg/mL [1]: 613%
- activity at 0.1 µg/mL [1]: 226%
- activity at 0.01 µg/mL [1]: 116%
- activity at 0.001 µg/mL [1]: 104%
- activity at 0.1 µg/mL [2]: 362%
- activity at 0.01 µg/mL [2]: 357%
- activity at 0.001 µg/mL [2]: 204%
- Number of Surviving Mice [3, 6]: 10 mice
- Number of Surviving Mice [3, 7]: 10 mice
- Number of Surviving Mice [3, 8]: 10 mice
- Number of Surviving Mice [3, 9]: 9 mice
- Number of Surviving Mice [3, 10]: 8 mice
- Number of Surviving Mice ([3]; day 35, all controls 0): 8 mice
- Number of Surviving Mice ([3]; day 40, all controls 0): 8 mice
- Number of Blood Platelets [4]: 25.4 ± 5.1 × 10^4 /μl
- Number of Blood Platelets [5]: 104.1 ± 7.7 × 10^4 /μl

Structure (SMILES): CCCCCCCCCCCCCCCCCCCCCCCC(=O)N[C@@H](CO[C@H]1O[C@H](CO)[C@H](O)[C@H](O)[C@H]1O)[C@H](O)[C@H](O)CCCCCCCCCCCCC [Compound 17, (2S,3S,4R)-1-(α-D-galactopyranosyloxy)-2-tetracosanoylamino-3,4-heptadecanediol]
- activity at 0.1 µg/mL [1]: 462%
- activity at 0.01 µg/mL [1]: 149%
- activity at 0.001 µg/mL [1]: 159%
- activity at 0.1 µg/mL [2]: 318%
- activity at 0.01 µg/mL [2]: 233%
- activity at 0.001 µg/mL [2]: 98%
- Number of Surviving Mice [3, 6]: 10 mice
- Number of Surviving Mice [3, 7]: 10 mice
- Number of Surviving Mice [3, 8]: 9 mice
- Number of Surviving Mice [3, 9]: 9 mice
- Number of Surviving Mice [3, 10]: 9 mice
- Number of Surviving Mice ([3]; day 35, all controls 0): 9 mice
- Number of Surviving Mice ([3]; day 40, all controls 0): 9 mice
- Number of Blood Platelets [4]: 18.5 ± 4.4 × 10^4 /μl
- Number of Blood Platelets [5]: 92.1 ± 11.3 × 10^4 /μl

Structure (SMILES): CCCCCCCCCCCCCCCCCCCCCCCC(=O)N[C@@H](CO[C@H]1O[C@H](CO)[C@H](O)[C@H](O)[C@H]1O)[C@H](O)[C@H](O)CCCCCCCCCCC [Compound 18, (2S,3S,4R)-1-(α-D-galactopyranosyloxy)-2-tetracosanoylamino-3,4-pentadecanediol]
- activity at 0.1 µg/mL [1]: 472%
- activity at 0.01 µg/mL [1]: 124%
- activity at 0.001 µg/mL [1]: 129%
- activity at 0.1 µg/mL [2]: 298%
- activity at 0.01 µg/mL [2]: 177%
- activity at 0.001 µg/mL [2]: 135%
- Number of Surviving Mice [3, 6]: 10 mice
- Number of Surviving Mice [3, 7]: 10 mice
- Number of Surviving Mice [3, 8]: 8 mice
- Number of Surviving Mice [3, 9]: 7 mice
- Number of Surviving Mice [3, 10]: 7 mice
- Number of Surviving Mice ([3]; day 35, all controls 0): 7 mice
- Number of Surviving Mice ([3]; day 40, all controls 0): 7 mice
- Number of Blood Platelets [4]: 24.3 ± 8.6 × 10^4 /μl
- Number of Blood Platelets [5]: 111.7 ± 5.4 × 10^4 /μl
